From patent US20090281157A1, “Active Ingredient Combinations With Insecticidal and Acaricidal Properties” (Bayer Cropscience AG, priority 2006, published 2009)

What was measured:
Assay type in all cases: in vivo
Myzus persicae = Myzus persicae test (spray on infested cabbage leaves)
Description: (§1) To produce a suitable preparation of active compound, 1 part by weight of active compound is mixed with the stated amounts of solvents and emulsifier, and the concentrate is diluted with emulsifier-containing water to the desired concentration.
Cabbage leaves (Brassica oleracea) which are heavily infested by the Green peach aphid (Myzus persicae), are treated by spraying with the active compound preparation of the desired concentration.
(§2) After the desired period of time, the kill in % is determined. 100% means that all aphids have been killed; 0% means that none of the aphids have been killed. The kill rates determined are entered into Colby's formula.

Tetranychus urticae = assay: Tetranychus test (OP-resistant/spray treatment) on bean leaf disks
Description: (§3) To produce a suitable preparation of active compound, 1 part by weight of active compound is mixed with the stated amounts of solvent and emulsifier, and the concentrate is diluted with emulsifier-containing water to the desired concentration.
Disks of bean leaves (Phaseolus vulgaris) which are infested by all stages of the greenhouse red spider mite (Tetranychus urticae) are sprayed with an active compound preparation of the desired concentration.
After the desired period of time, the activity in % is determined. 100% means that all spider mites have been killed; 0% means that none of the spider mites have been killed.

Aphis gossypii = Aphis gossypii test (dipped cotton leaves)
Description: as §3
Cotton leaves (Gossypium herbaceum) which are heavily infested by the cotton aphid (Aphis gossypii) are treated by being dipped into the active compound preparation of the desired concentration.
as §2

Phaedon cochleariae = Phaedon cochleariae larvae test (sprayed cabbage leaves)
Description: as §1
Cabbage leaves (Brassica oleracea) are treated by spraying with the active compound preparation of the desired concentration and are populated with larvae of the mustard beetle (Phaedon cochleariae) while the leaves are still moist.
After the desired period of time, the kill in % is determined. 100% means that all beetle larvae have been killed; 0% means that none of the beetle larvae have been killed. The kill rates determined are entered into Colby's formula.

Spodoptera frugiperda = Spodoptera frugiperda larvae test (sprayed cabbage leaves)
Description: as §1
Cabbage leaves (Brassica oleracea) are treated by spraying with the active compound preparation of the desired concentration and are populated with larvae of the armyworm (Spodoptera frugiperda) while the leaves are still moist.
After the desired period of time, the kill in % is determined. 100% means that all caterpillars have been killed; 0% means that none of the caterpillars have been killed. The kill rates determined are entered into Colby's formula.

CC1(C)C(/C=C(\Cl)C(F)(F)F)C1C(=O)OC(C#N)c1cccc(Oc2ccccc2)c1 [L-cyhalothrin, lambda-cyhalothrin]
Kill in % after 1d (Myzus persicae; 0.16 g/ha): 10%
Kill in % after 6d (Tetranychus urticae; 0.032 g/ha): 0%
Kill in % after 1d (Aphis gossypii; 0.16 ppm): 20%

CC1(C)C(C=C(Cl)Cl)C1C(=O)OC(C#N)c1cccc(Oc2ccccc2)c1 (stereo not drawn) [alpha-cypermethrin]
Kill in % after 6d (Phaedon cochleariae; 0.8 g/ha): 67%

Cc1c(COC(=O)C2C(/C=C(\Cl)C(F)(F)F)C2(C)C)cccc1-c1ccccc1 (stereo not shown) [bifenthrin]
Kill in % after 1d (Myzus persicae; 0.0064 g/ha): 0%
Kill in % after 6d (Spodoptera frugiperda; 0.8 g/ha): 0%

CO[C@H]1CC[C@]2(CC1)NC(=O)C(c1cc(C)ccc1C)=C2O [compound (I)]
Kill in % after 1d (Aphis gossypii; 4 ppm): 0%

CCOC(=O)OC1=C(c2cc(C)ccc2C)C(=O)N[C@]12CC[C@@H](OC)CC2 [compound (II)]
Kill in % after 1d (Myzus persicae; 0.8 g/ha): 20%
Kill in % after 1d (Myzus persicae; 20 g/ha): 0%
Kill in % after 6d (Phaedon cochleariae; 4 g/ha): 0%
Kill in % after 6d (Phaedon cochleariae; 20 g/ha): 0%
Kill in % after 6d (Phaedon cochleariae; 100 g/ha): 50%
Kill in % after 6d (Spodoptera frugiperda; 20 g/ha): 17%
Kill in % after 6d (Spodoptera frugiperda; 100 g/ha): 67%
Kill in % after 6d (Tetranychus urticae; 0.8 g/ha): 50%
Kill in % after 2d (Tetranychus urticae; 4 g/ha): 50%
Kill in % after 6d (Tetranychus urticae; 4 g/ha): 90%
Kill in % after 2d (Tetranychus urticae; 100 g/ha): 70%

CCOC(=O)OC1=C(c2cc(C)ccc2C)C(=O)NC12CCC(OC)CC2 (stereo not shown) [compound (II-a)]
Kill in % after 1d (Myzus persicae; 0.8 g/ha): 20%
Kill in % after 1d (Myzus persicae; 20 g/ha): 0%
Kill in % after 6d (Phaedon cochleariae; 4 g/ha): 0%
Kill in % after 6d (Phaedon cochleariae; 20 g/ha): 0%
Kill in % after 6d (Phaedon cochleariae; 100 g/ha): 83%
Kill in % after 6d (Spodoptera frugiperda; 20 g/ha): 17%
Kill in % after 6d (Spodoptera frugiperda; 100 g/ha): 50%
Kill in % after 6d (Tetranychus urticae; 0.8 g/ha): 60%
Kill in % after 2d (Tetranychus urticae; 4 g/ha): 30%
Kill in % after 6d (Tetranychus urticae; 4 g/ha): 90%
Kill in % after 2d (Tetranychus urticae; 100 g/ha): 40%

COC1CCC2(CC1)NC(=O)C(c1cc(C)ccc1C)=C2O (stereo not shown) [compound (Ia)]
Kill in % after 1d (Aphis gossypii; 4 ppm): 0%

CC1(C)C(C=C(Cl)Cl)C1C(=O)OC(C#N)c1cccc(Oc2ccccc2)c1 (stereo not shown) [cypermethrin]
Kill in % after 6d (Phaedon cochleariae; 0.8 g/ha): 17%
Kill in % after 6d (Spodoptera frugiperda; 0.8 g/ha): 0%

CC1(C)[C@H](C(=O)O[C@H](C#N)c2cccc(Oc3ccccc3)c2)[C@@H]1C=C(Br)Br [deltamethrin]
Kill in % after 2d (Tetranychus urticae; 0.032 g/ha): 10%

CC1(C)[C@H](/C=C(\Cl)C(F)(F)F)[C@@H]1C(=O)O[C@H](C#N)c1cccc(Oc2ccccc2)c1 [gamma-cyhalothrin]
Kill in % after 1d (Myzus persicae; 0.0064 g/ha): 0%

CC1(C)C(C=C(Cl)Cl)C1C(=O)OC(C#N)c1cccc(Oc2ccccc2)c1 (stereo not shown) [zeta-cypermethrin]
Kill in % after 6d (Phaedon cochleariae; 0.16 g/ha): 0%

CC1(C)C(C=C(Cl)Cl)C1C(=O)OC(C#N)c1ccc(F)c(Oc2ccccc2)c1 (stereo not drawn) [β-cyfluthrin, betacyfluthrin]
Kill in % after 1d (Myzus persicae; 0.0064 g/ha): 0%
Kill in % after 6d (Tetranychus urticae; 0.0064 g/ha): 0%
